Test results taken from ChEMBL document CHEMBL3885881, “DrugMatrix”.

Species on record: Rattus norvegicus
Test: DrugMatrix - Regimen: Daily Repeat
Assay type: toxicity, organism-based, Sprague-Dawley
Parameters: regimen Daily Repeat, gender Male, age 6-8 weeks
Conditions: in vivo, po, route oral GAVAGE, vehicle .5 % CMC; for BASOPHIL / EOSINOPHIL / ERYTHROCYTE COUNT / HEMATOCRIT / HEMOGLOBIN / LEUKOCYTE COUNT / LYMPHOCYTE / MEAN CORPUSCULAR HEMOGLOBIN / MEAN CORPUSCULAR HEMOGLOBIN CONCENTRATION / MEAN CORPUSCULAR VOLUME / MONOCYTE / NEUTROPHIL / PLATELET COUNT: tissue Blood; for ALANINE AMINOTRANSFERASE / ALBUMIN / ALKALINE PHOSPHATASE / ASPARTATE AMINOTRANSFERASE / BLOOD UREA NITROGEN / CHLORIDE / CHOLESTEROL / CREATINE PHOSPHOKINASE / CREATININE / GLUCOSE / PHOSPHORUS / POTASSIUM / SODIUM / TOTAL BILIRUBIN / TOTAL PROTEIN: tissue Plasma
[1] = 0 mg/kg, 72 h, dose level Control, time 3 day
[2] = 0 mg/kg, 120 h, dose level Control, time 5 day
[3] = 75 mg/kg, 72 h, dose level High, time 3 day
[4] = 75 mg/kg, 120 h, dose level High, time 5 day
[5] = […], 72 h, dose 7.5 mg/Kg, dose level Low, time 3 day
[6] = […], 120 h, dose 7.5 mg/Kg, dose level Low, time 5 day

For COc1ccc(C2C(=O)c3ccccc3C2=O)cc1 [ANISINDIONE], the BASOPHIL [1] was 0%, the EOSINOPHIL [1] was 0% and the “ERYTHROCYTE COUNT” value [1] was 6.19 x10E6/uL. For the same compound, the HEMATOCRIT [1] was 36.94%, the HEMOGLOBIN [1] was 14.58 G/DL and the “LEUKOCYTE COUNT” value [1] was 11.54 x10E3/uL. For the same compound, the LYMPHOCYTE [1] was 84.8%, the “MEAN CORPUSCULAR HEMOGLOBIN” value [1] was 23.58 pg and the “MEAN CORPUSCULAR HEMOGLOBIN CONCENTRATION” value [1] was 39.44 G/DL. The “MEAN CORPUSCULAR VOLUME” value [1] was 59.76 fL, the MONOCYTE [1] was 1.4% and the NEUTROPHIL [1] was 13.8%. For the same compound, the “PLATELET COUNT” value [1] was 1068.8 x10E3/uL, the “ALANINE AMINOTRANSFERASE” value [1] was 38.17 u/L and the ALBUMIN [1] was 3.88 G/DL. For the same compound, the “ALKALINE PHOSPHATASE” value [1] was 391.33 u/L, the “ASPARTATE AMINOTRANSFERASE” value [1] was 69.83 u/L and the “BLOOD UREA NITROGEN” value [1] was 15 mg/dL. For the same compound, the CHLORIDE [1] was 104.17 MEQ/L, the CHOLESTEROL [1] was 72.17 mg/dL and the “CREATINE PHOSPHOKINASE” value [1] was 174.33 u/L. For the same compound, the CREATININE [1] was 0.58 mg/dL, the GLUCOSE [1] was 192.67 mg/dL and the PHOSPHORUS [1] was 10.52 mg/dL. For the same compound, the POTASSIUM [1] was 6.8 MEQ/L, the SODIUM [1] was 149.67 MEQ/L and the “TOTAL BILIRUBIN” value [1] was 0.78 mg/dL. The “TOTAL PROTEIN” value [1] was 6.28 G/DL, the BASOPHIL [2] was 0% and the EOSINOPHIL [2] was 0.17%. For the same compound, the “ERYTHROCYTE COUNT” value [2] was 6.72 x10E6/uL, the HEMATOCRIT [2] was 40.02% and the HEMOGLOBIN [2] was 15.83 G/DL. For the same compound, the “LEUKOCYTE COUNT” value [2] was 9.5 x10E3/uL, the LYMPHOCYTE [2] was 87.17% and the “MEAN CORPUSCULAR HEMOGLOBIN” value [2] was 23.57 pg. The “MEAN CORPUSCULAR HEMOGLOBIN CONCENTRATION” value [2] was 39.62 G/DL, the “MEAN CORPUSCULAR VOLUME” value [2] was 59.55 fL and the MONOCYTE [2] was 1.67%. For the same compound, the NEUTROPHIL [2] was 11%, the “PLATELET COUNT” value [2] was 1053.67 x10E3/uL and the “ALANINE AMINOTRANSFERASE” value [2] was 26.33 u/L. For the same compound, the ALBUMIN [2] was 4.02 G/DL, the “ALKALINE PHOSPHATASE” value [2] was 316.67 u/L and the “ASPARTATE AMINOTRANSFERASE” value [2] was 61.33 u/L. For the same compound, the “BLOOD UREA NITROGEN” value [2] was 18.67 mg/dL, the CHLORIDE [2] was 108 MEQ/L and the CHOLESTEROL [2] was 65.17 mg/dL. For the same compound, the “CREATINE PHOSPHOKINASE” value [2] was 161.17 u/L, the CREATININE [2] was 0.75 mg/dL and the GLUCOSE [2] was 177.33 mg/dL. For the same compound, the PHOSPHORUS [2] was 9.72 mg/dL, the POTASSIUM [2] was 6.18 MEQ/L and the SODIUM [2] was 150.5 MEQ/L. The “TOTAL BILIRUBIN” value [2] was 0.68 mg/dL, the “TOTAL PROTEIN” value [2] was 6.55 G/DL and the BASOPHIL [3] was 0%. The EOSINOPHIL [3] was 0.33%, the “ERYTHROCYTE COUNT” value [3] was 6.08 x10E6/uL and the HEMATOCRIT [3] was 36.9%. For the same compound, the HEMOGLOBIN [3] was 14.87 G/DL, the “LEUKOCYTE COUNT” value [3] was 12.97 x10E3/uL and the LYMPHOCYTE [3] was 73.67%. The “MEAN CORPUSCULAR HEMOGLOBIN” value [3] was 24.43 pg, the “MEAN CORPUSCULAR HEMOGLOBIN CONCENTRATION” value [3] was 40.3 G/DL and the “MEAN CORPUSCULAR VOLUME” value [3] was 60.63 fL. The MONOCYTE [3] was 4.67%, the NEUTROPHIL [3] was 21.33% and the “PLATELET COUNT” value [3] was 1074.33 x10E3/uL. For the same compound, the “ALANINE AMINOTRANSFERASE” value [3] was 32.33 u/L, the ALBUMIN [3] was 3.7 G/DL and the “ALKALINE PHOSPHATASE” value [3] was 312.67 u/L. The “ASPARTATE AMINOTRANSFERASE” value [3] was 70.67 u/L, the “BLOOD UREA NITROGEN” value [3] was 16.67 mg/dL and the CHLORIDE [3] was 102.67 MEQ/L. The CHOLESTEROL [3] was 62.67 mg/dL, the “CREATINE PHOSPHOKINASE” value [3] was 163 u/L and the CREATININE [3] was 0.7 mg/dL. For the same compound, the GLUCOSE [3] was 161.33 mg/dL, the PHOSPHORUS [3] was 10.17 mg/dL and the POTASSIUM [3] was 6.4 MEQ/L. For the same compound, the SODIUM [3] was 147 MEQ/L, the “TOTAL BILIRUBIN” value [3] was 0.57 mg/dL and the “TOTAL PROTEIN” value [3] was 5.87 G/DL. For the same compound, the BASOPHIL [4] was 0%, the EOSINOPHIL [4] was 0.5% and the “ERYTHROCYTE COUNT” value [4] was 6.19 x10E6/uL. For the same compound, the HEMATOCRIT [4] was 36.1%, the HEMOGLOBIN [4] was 14.4 G/DL and the “LEUKOCYTE COUNT” value [4] was 13.5 x10E3/uL. The LYMPHOCYTE [4] was 85.5%, the “MEAN CORPUSCULAR HEMOGLOBIN” value [4] was 23.25 pg and the “MEAN CORPUSCULAR HEMOGLOBIN CONCENTRATION” value [4] was 39.9 G/DL. The “MEAN CORPUSCULAR VOLUME” value [4] was 58.3 fL, the MONOCYTE [4] was 1.5% and the NEUTROPHIL [4] was 12.5%. The “PLATELET COUNT” value [4] was 1096 x10E3/uL, the “ALANINE AMINOTRANSFERASE” value [4] was 36.5 u/L and the ALBUMIN [4] was 3.75 G/DL. For the same compound, the “ALKALINE PHOSPHATASE” value [4] was 318 u/L, the “ASPARTATE AMINOTRANSFERASE” value [4] was 61.5 u/L and the “BLOOD UREA NITROGEN” value [4] was 14 mg/dL. For the same compound, the CHLORIDE [4] was 104 MEQ/L, the CHOLESTEROL [4] was 40.5 mg/dL and the “CREATINE PHOSPHOKINASE” value [4] was 138.5 u/L. For the same compound, the CREATININE [4] was 0.55 mg/dL, the GLUCOSE [4] was 161 mg/dL and the PHOSPHORUS [4] was 10.3 mg/dL. For the same compound, the POTASSIUM [4] was 6.15 MEQ/L, the SODIUM [4] was 150 MEQ/L and the “TOTAL BILIRUBIN” value [4] was 0.55 mg/dL. For the same compound, the “TOTAL PROTEIN” value [4] was 6.2 G/DL, the BASOPHIL [5] was 0% and the EOSINOPHIL [5] was 1%. The “ERYTHROCYTE COUNT” value [5] was 6.37 x10E6/uL, the HEMATOCRIT [5] was 38.8% and the HEMOGLOBIN [5] was 15.33 G/DL. For the same compound, the “LEUKOCYTE COUNT” value [5] was 10.33 x10E3/uL, the LYMPHOCYTE [5] was 83.67% and the “MEAN CORPUSCULAR HEMOGLOBIN” value [5] was 24.07 pg. For the same compound, the “MEAN CORPUSCULAR HEMOGLOBIN CONCENTRATION” value [5] was 39.53 G/DL, the “MEAN CORPUSCULAR VOLUME” value [5] was 60.9 fL and the MONOCYTE [5] was 3.33%. The NEUTROPHIL [5] was 12%, the “PLATELET COUNT” value [5] was 1127.67 x10E3/uL and the “ALANINE AMINOTRANSFERASE” value [5] was 31.33 u/L. The ALBUMIN [5] was 3.87 G/DL, the “ALKALINE PHOSPHATASE” value [5] was 294.67 u/L and the “ASPARTATE AMINOTRANSFERASE” value [5] was 62.33 u/L. The “BLOOD UREA NITROGEN” value [5] was 14.33 mg/dL, the CHLORIDE [5] was 103.67 MEQ/L and the CHOLESTEROL [5] was 76 mg/dL. For the same compound, the “CREATINE PHOSPHOKINASE” value [5] was 156 u/L, the CREATININE [5] was 0.7 mg/dL and the GLUCOSE [5] was 185.67 mg/dL. It also gave a PHOSPHORUS [5] of 12.2 mg/dL, a POTASSIUM [5] of 7.33 MEQ/L and an SODIUM [5] of 149.67 MEQ/L. For the same compound, the “TOTAL BILIRUBIN” value [5] was 0.53 mg/dL, the “TOTAL PROTEIN” value [5] was 6.23 G/DL and the BASOPHIL [6] was 0%. The EOSINOPHIL [6] was 0%, the “ERYTHROCYTE COUNT” value [6] was 6.33 x10E6/uL and the HEMATOCRIT [6] was 38.27%. The HEMOGLOBIN [6] was 15.1 G/DL, the “LEUKOCYTE COUNT” value [6] was 12.9 x10E3/uL and the LYMPHOCYTE [6] was 81.33%. For the same compound, the “MEAN CORPUSCULAR HEMOGLOBIN” value [6] was 23.87 pg, the “MEAN CORPUSCULAR HEMOGLOBIN CONCENTRATION” value [6] was 39.47 G/DL and the “MEAN CORPUSCULAR VOLUME” value [6] was 60.5 fL. For the same compound, the MONOCYTE [6] was 2.33%, the NEUTROPHIL [6] was 16.33% and the “PLATELET COUNT” value [6] was 999.67 x10E3/uL. For the same compound, the “ALANINE AMINOTRANSFERASE” value [6] was 37 u/L, the ALBUMIN [6] was 3.87 G/DL and the “ALKALINE PHOSPHATASE” value [6] was 349.67 u/L. The “ASPARTATE AMINOTRANSFERASE” value [6] was 67.67 u/L, the “BLOOD UREA NITROGEN” value [6] was 14 mg/dL and the CHLORIDE [6] was 104 MEQ/L. For the same compound, the CHOLESTEROL [6] was 70.33 mg/dL, the “CREATINE PHOSPHOKINASE” value [6] was 150.33 u/L and the CREATININE [6] was 0.7 mg/dL. For the same compound, the GLUCOSE [6] was 172 mg/dL, the PHOSPHORUS [6] was 10.37 mg/dL and the POTASSIUM [6] was 6.23 MEQ/L. For the same compound, the SODIUM [6] was 149.67 MEQ/L, the “TOTAL BILIRUBIN” value [6] was 0.57 mg/dL and the “TOTAL PROTEIN” value [6] was 6.2 G/DL.
